# From US10172830B2, “Pyrazolone compounds having human neutrophil elastase inhibitory properties” (CHIESI FARMACEUTICI S.P.A., priority 2016, dated 2019)
# pIC50: −log10 of the molar value.
# Biological target: T1, human neutrophil elastase (HNE) (Homo sapiens, UniProt P08246)
# T1 construct: purchased Sigma E8140
# T1 sequence (P08246 30-247 limits assumed): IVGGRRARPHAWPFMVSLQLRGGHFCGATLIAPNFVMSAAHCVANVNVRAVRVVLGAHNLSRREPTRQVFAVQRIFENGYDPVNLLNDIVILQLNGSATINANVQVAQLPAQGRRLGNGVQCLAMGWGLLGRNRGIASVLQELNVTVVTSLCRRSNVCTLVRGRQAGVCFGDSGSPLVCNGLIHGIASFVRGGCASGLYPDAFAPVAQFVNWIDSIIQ
# Assay: HNE enzyme assay (human neutrophil elastase enzyme activity assay)
# Assay type: biochemical
# Settings: human leukocyte elastase 0.00072 U/mL; substrate MeOSuc-Ala-Ala-Pro-Val-AMC 100 μM; 25° C. for 30 minutes; at least two separate experiments; read-out: HNE inhibition (HNE enzyme inhibition, IC50 values)
# Summary of the method: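 Human leukocyte elastase (0.00072 U/mL) with 100 μM MeOSuc-AAPV-AMC in Tris/NaCl/CaCl2/Brij-35 buffer, pH 7.5, 1% DMSO, 30 min at 25 °C; stopped with soybean trypsin inhibitor. AMC fluorescence (380/460 nm) as % inhibition of control; IC50 from dose-response curves, ≥2 experiments.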
row,Structure (SMILES),pIC50
1,"C[C@H](NC(=O)c1c(-c2ccnn2-c2ccc(C#N)cc2)n(C)n(-c2cccc(C(F)(F)F)c2)c1=O)C(=O)N1CCC[N+](C)(C)CC1 [Example 66, 4-((S)-2-{[2′-(4-Cyano-phenyl)-2-methyl-5-oxo-1-(3-trifluoromethyl-phenyl)-2,5-dihydro-1H,2′H-[3,3′]bipyrazolyl-4-carbonyl]-amino}-propionyl)-1,1-dimethyl-[1,4]diazepan-1-ium benzene sulphonate]",> 9.00
2,"Cn1c(-c2ccnn2-c2ccc(C#N)cc2)c(C(=O)N[C@H]2CC[C@H](c3ncc(C[N+](C)(C)C)o3)CC2)c(=O)n1-c1cccc(C(F)(F)F)c1 [Example 67, [2-(Trans-4-{[2′-(4-Cyano-phenyl)-2-methyl-5-oxo-1-(3-trifluoromethyl-phenyl)-2,5-dihydro-1H,2′H-[3,3′]bipyrazolyl-4-carbonyl]-amino}-cyclohexyl)-oxazol-5-ylmethyl]-trimethyl-ammonium benzene sulphonate]",> 9.00
3,"Cn1c(-c2ccnn2-c2ccc(C#N)cc2)c(C(=O)N[C@H]2C[C@H](c3ncc(C[N+](C)(C)C)o3)C2)c(=O)n1-c1cccc(C(F)(F)F)c1 [Example 68, [2-(Trans-3-{[2′-(4-cyano-phenyl)-2-methyl-5-oxo-1-(3-trifluoromethyl-phenyl)-2,5-dihydro-1H,2′H-[3,3′]bipyrazolyl-4-carbonyl]-amino}-cyclobutyl)-oxazol-5-ylmethyl]-trimethyl-ammonium benzene sulphonate]",> 9.00
4,"Cn1c(-c2ccnn2-c2ccc(C#N)cc2)c(C(=O)N[C@H]2CC[C@H](C[n+]3ccccc3)CC2)c(=O)n1-c1cccc(C(F)(F)F)c1 [Example 69, 1-(4-{[2′-(4-Cyano-phenyl)-2-methyl-5-oxo-1-(3-trifluoromethyl-phenyl)-2,5-dihydro-1H,2′H-[3,3′]bipyrazolyl-4-carbonyl]-amino}-cyclohexylmethyl)-pyridinium bromide]",> 9.00
5,"Cn1cc[n+](C[C@H]2CC[C@H](NC(=O)c3c(-c4ccnn4-c4ccc(C#N)cc4)n(C)n(-c4cccc(C(F)(F)F)c4)c3=O)CC2)c1 [Example 70, 1-(4-{[2′-(4-Cyano-phenyl)-2-methyl-5-oxo-1-(3-trifluoromethyl-phenyl)-2,5-dihydro-1H,2′H-[3,3′]bipyrazolyl-4-carbonyl]-amino}-cyclohexylmethyl)-3-methyl-3H-imidazol-1-ium bromide]",> 9.00
6,"CCOC(=O)c1c(-c2ccnn2-c2ccc(C#N)cc2)n(CC)n(-c2cccc(C(F)(F)F)c2)c1=O [Example 71, 2′-(4-Cyano-phenyl)-2-ethyl-5-oxo-1-(3-trifluoromethyl-phenyl)-2,5-dihydro-1H,2′H-[3,3′]bipyrazolyl-4-carboxylic acid ethyl ester]",> 9.00
7,"Cn1c(-c2nccn2-c2ccc(C#N)cc2)c(C(=O)NC2CCCC2)c(=O)n1-c1cccc(C(F)(F)F)c1 [Example 72, 5-[1-(4-Cyano-phenyl)-1H-imidazol-2-yl]-1-methyl-3-oxo-2-(3-trifluoromethyl-phenyl)-2,3-dihydro-1H-pyrazole-4-carboxylic acid cyclopentyl-amide]",> 9.00
